Test results taken from patent publication US11414443B2, “Phospholipid derivatives and their use as medicaments” (USTAV MOLEKULARNI GENETIKY AV CR, V.V.I., priority 2017, dated 2022).
Read-outs that look alike come from different tables or passages of the source.

Columns and labels:
[1] = test system: TIB-75 (inducing murine hepatocarcinoma); test: Cytotoxicity in TIB-75 tumor cell culture, ATP content; assay type: cell-based; settings: TIB-75 cells, 16 hours of culture
Protocol: (§1) After 16 hours of culture, cell state was recorded.
(§2) The cytotoxicity of the products was quantified by determining the ATP content in the cells and using neutral red intake, and the IC50ATP and IC50NR [μM] were determined.

[2] = test system: LMH (chicken hepatocarcinoma); test: cells; assay type: cell-based; settings: 16 hours of culture, ATP content
Protocol: (§3) The cytotoxic activity of the products was tested in tumor cell cultures C32 (human melanoma), TIB-75 (inducing murine hepatocarcinoma), LMH (chicken hepatocarcinoma).
B) LMH cells were cultured in D-MEM medium containing 10% fetal serum and penicillin+streptomycin at 37° C. in air/5% CO2 atmosphere saturated with water vapor. Each well contained 5×10^4 cells and 0.5 ml medium. […] After 16 hours of culture, cell state was recorded.
as §2

C32 (human melanoma) = test: Cytotoxicity in C32 tumor cell culture, ATP content; assay type: cell-based; settings: C32 cells, 16 hours of culture
Protocol: as §1, §2

[3] = test system: tumor cell cultures C32, TIB-75, LMH; test: Cell state and growth in tumor cell cultures, controls and comparison products; settings: 0-240 μM, 16 hours of culture
Protocol: As a control, the starting phospholipids were used at the same concentrations and conditions.
as §3
(§4) A) C32 cells were cultured in D-MEM medium containing 10% fetal serum and penicillin+streptomycin at 37° C. in air/5% CO2 atmosphere saturated with water vapor. Each well contained 5×10^4 cells and 0.5 ml medium. The tested products were added to the cells at concentrations of 0, 2.5, 5, 10, 20, 40, 80, 160 and 240 μM. After 16 hours of culture, cell state was recorded.
as §4, with “B) LMH” for “A) C32”, “phospholipids” for “products”
as §4, with “C) TIB-75” for “A) C32”, “phospholipids” for “products”

[4] = test system: mammary gland 4T1 cancer cell line; test: Crystal violet cytotoxicity assay, E-DAPL/Dox combination; assay type: cell-based; settings: for IC50: Mus musculus
Protocol: The potentiation of cytotoxic effect of E-DAPL/Dox combination was evaluated. The dose-effect relationship of individual drugs and E-DAPL/Dox mixture (ratio 202:1 was tested) was determined on mammary gland 4T1 cancer cell line by means of crystal violet assay (three measurements). The linearized Median-Effect Plot of dose response line provided both parameters (IC50; trend line m value) of Median-Effect Equation for individual and combination treatment [ref: Theoretical basis, experimental design, and computerized simulation of synergism and antagonism in drug combination studies; Ting-Chao Chou: Pharmacol Rev. 58(3), 2006, 621-81; Erratum in Pharmacol Rev. 2007; 59(1), 124]:
Potentiation of combination effect of E-DAPL/Dox/202:1 was expressed for the concentrations IC1 to IC60 by calculation of Combination index (CI) applying Combination Index Theorem for mutually nonexclusive drugs that obey higher order conditions [ref: Quantitative analysis of dose-effect relationships: the combined effects of multiple drugs or enzyme inhibitors; Ting-Chao Chou, Paul Talalay: Advances in Enzyme Regulation, Volume 22, 1984, Pages 27-55]: […]

“1-acyl-lysophosphatidylcholine [PC/E-DAPL]” gave an IC50 [1] of 45 µM, an IC50 [2] of 35 µM and an IC50 (C32 (human melanoma)) of 50 µM.
“1-acyl-lysophosphatidylethanolamine [PE/E-DAPL]” was tested, and the IC50 [1] was 35 µM, the IC50 [2] was 30 µM and the IC50 (C32 (human melanoma)) was 35 µM.
For “1-stearoyl-phosphatidylcholine [sn-1 stearoyl PC]”, the “cytotoxic activity: effect on phenotype and rate of cell growth” value (from here on “cytotoxic activity: effect”) [3] was “did not affect the phenotype or reduce the rate of cell growth”.
“2-acyl-lysophosphatidylcholine [2-acyl PC (15-20% 1-acyl PC), reference compound]” gave an IC50 [1] of 210 µM and an IC50 (C32 (human melanoma)) of 200 µM.
For `COc1cccc2c1C(=O)c1c(O)c3c(c(O)c1C2=O)C[C@@](O)(C(=O)CO)C[C@@H]3O[C@H]1C[C@H](N)[C@H](O)[C@H](C)O1` [Dox, doxorubicin], the “concentration of Dox at IC25” value ([4]; 4T1 cell line, Dox alone or within E-DAPL/Dox 202:1) was 0.2306 µM, the IC50 ([4]; 4T1 cell line, Dox alone or within E-DAPL/Dox 202:1, read-out: concentration of Dox at IC50 level) was 0.93 µM and the IC50 ([4]; 4T1 cells, crystal violet assay, calculated from the Median-Effect Plot, read-out: IC50) was 0.93 µM.
`C[N+](C)(C)CCOP(=O)([O-])OCC(O)COC(=O)CCC1CCCC1` (stereo not drawn) [sn-1 cyclopentanepropionyl PC/E-DAPL] showed an IC50 ([2]; Gallus gallus) of 130 µM and an IC50 (C32 (human melanoma); Homo sapiens) of 150 µM.
`CCCCCC(=O)OCC(O)COP(=O)([O-])OCC[N+](C)(C)C` (stereo not drawn) [sn-1 hexanoyl PC/E-DAPL] gave an IC50 ([1]; Mus musculus) of 135 µM, an IC50 ([2]; Gallus gallus) of 135 µM and an IC50 (C32 (human melanoma); Homo sapiens) of 130 µM.
Compound `CCCCCCCCCCCCCCCCCC(=O)OCC(O)COP(=O)([O-])OCC[N+](C)(C)C` (stereo not drawn) [sn-1 stearoyl PC/E-DAPL] has an IC50 ([1]; Mus musculus) of 45 µM, an IC50 ([2]; Gallus gallus) of 40 µM and an IC50 (C32 (human melanoma); Homo sapiens) of 45 µM.
Work on `CC(CC(=O)OCC(O)COP(=O)([O-])OCC[N+](C)(C)C)CC(C)(C)C` (stereo not drawn) [sn-1 trimethylhexanoyl PC/E-DAPL] yielded an IC50 ([2]; Gallus gallus) of 140 µM and an IC50 (C32 (human melanoma); Homo sapiens) of 130 µM.
For phosphatidylcholine [PC], the “cytotoxic activity: effect” value [3] was “did not affect the phenotype or reduce the rate of cell growth”.
In the case of phosphatidylethanolamine [PE], the “cytotoxic activity: effect” value [3] is reported as “did not affect the phenotype or reduce the rate of cell growth”.
